Source: patent US12715846B2, “Crystal form of quinolinone compound and use thereof” (SUNSHINE LAKE PHARMA CO., LTD., priority 2019, dated 2026)

Key:
[1] = Stability: high-temperature experiment; assay type: physicochemical; conditions: for Purity: HPLC
Procedure: (1) High-temperature experiment: appropriate amount of the test sample was added into a flat weighing bottle, divided into ≤5 mm thick thin layer. The bottle was placed at 60° C.±2° C. for 30 days. Samples were taken on the 6th, 10th, and 30th day, and tested according to the key stability inspection items: the color of the samples were observed, the purities of the samples were determined by HPLC.

[2] = Stability: accelerated experiment; assay type: physicochemical; conditions: for Appearance / Purity / Moisture content: 40 ± 2° C./75% ± 5% RH; for Purity: HPLC; for Moisture content: by TGA
Procedure: (4) Accelerated experiment: appropriate amount of the test sample was packed with a single-layer PE and aluminum foil, the sample was placed at 40±2° C./75%±5% RH for 6 months. Samples were taken on the 1st, 2nd, 3rd and 6th month. The color of the samples were observed, the purities of the samples were determined by HPLC, and the moisture content was determined by TGA.

[3] = Pharmacokinetic experiment of the crystal form in Beagle dogs; assay type: in vivo
Procedure: The crystal form of the compound of formula (I) of the present invention is filled into capsules for oral administration.
8-12 kg male Beagle dogs were taken, and 3 as a group. Capsules containing the test sample were orally administered at a dose of 10 mg/kg and the bloods were collected at time points of 0.25, 0.5, 1.0, 2.0, 4.0, 6.0, 8.0 and 24 h. Standard curve was plotted based on concentrations of the samples in a suitable range, the concentration of the test sample in the plasma sample was measured and quantified by AB SCIEX API4000 LC-MS/MS at MRM mode. Pharmacokinetic parameters were calculated according to drug concentration-time curve using a noncompartmental method by WinNonLin 6.3 software.

[4] = Stability: high-humidity experiment; assay type: physicochemical; conditions: for Appearance / Purity: High humidity (RH92.5%); for Purity: HPLC
Procedure: (2) High-humidity experiment: a batch of the test sample was added into a flat weighing bottle, divided into ≤5 mm thick thin layer. The bottle was placed at 25° C. and RH for 90%±5% for 30 days. Samples were taken on the 6th, 10th, and 30th day, and tested according to the key stability inspection items: the color of the samples were observed, the purities of the samples were determined by HPLC.

[5] = Stability: illumination experiment; assay type: physicochemical; conditions: for Appearance / Purity: Illumination; for Purity: HPLC
Procedure: (3) Illumination experiment: a batch of the test sample was added into a flat weighing bottle, divided into ≤5mm thick thin layer. The bottle was opened and placed in a light box (with UV lamp) under the condition of illuminance of 4500±500 lx and ultraviolet light ≥0.7w/m^2 for 30 days. Samples were taken on the 6th, 13th, and 30th day, the purities of the samples were determined by HPLC.

[6] = Crystal form stability on standing under normal temperature and pressure; assay type: physicochemical; conditions: normal temperature and pressure conditions
Solubility experiment = assay type: physicochemical; conditions: comparison in words, values not given
Procedure: The solubility of the present invention was determined using an Agilent 1200 High Performance Liquid Chromatograph DAD/VWD detector with an Agilent XDB-C18 model (4.6×50 mm, 5 μm). The detection wavelength was 266 nm, the flow rate was 1.0 mL/min, and the column temperature was 35° C. The mobile phase A was acetonitrile−0.01 M ammonium acetate=10:90 (V:V), and the analysis method was acetonitrile−mobile phase A=70:30 (V:V). The running time was 10 minutes.

[7] = Hygroscopicity experiment (dynamic moisture adsorption, DVS); assay type: physicochemical
Procedure: The hygroscopicity of the present invention was measured by a DVS INT-Std dynamic moisture and gas adsorption analyzer from Surface Measurement Systems, UK. The humidity test range was 0%-95%, the airflow rate was 200 mL/min, and the temperature was 25° C. One test point was taken for every 5% increase in humidity.
An appropriate amount of the test sample was taken, the hygroscopicity was tested by dynamic moisture adsorption device.

[8] = 0 day (start, common to all conditions of Table 2)
[9] = High temperature (60° C.), 6th day
[10] = High temperature (60° C.), 10th day
[11] = High temperature (60° C.), 30th day
[12] = dog, plasma, po, male Beagle dogs, capsules orally, 10 mg/kg

Structure (SMILES): Cn1c(=O)c(C(=O)NCC(=O)O)c(O)c2ccc(Oc3ccccc3)cc21 [Example 1, 2-(4-hydroxy-1-methyl-2-oxo-7-phenoxy-1,2-dihydroquinoline-3-carboxamido)acetic acid]
- Appearance [1, 8]: off-white
- Purity [1, 8]: 99.76%
- Appearance [1, 9]: off-white
- Purity [1, 9]: 99.77%
- Appearance [1, 10]: off-white
- Purity [1, 10]: 99.78%
- Appearance [1, 11]: off-white
- Purity [1, 11]: 99.77%
- change of appearance and purity ([1]; high temperature (60° C.), 30 days): no obvious changes
- Appearance ([2]; 0 month): off-white
- Purity ([2]; 0 month): 99.78%
- Moisture content ([2]; 0 month): 0.04%
- Appearance ([2]; 1st month): off-white
- Purity ([2]; 1st month): 99.77%
- Moisture content ([2]; 1st month): 0.06%
- Appearance ([2]; 2nd month): off-white
- Purity ([2]; 2nd month): 99.78%
- Moisture content ([2]; 2nd month): 0.07%
- Appearance ([2]; 3rd month): off-white
- Purity ([2]; 3rd month): 99.78%
- Moisture content ([2]; 3rd month): 0.08%
- Appearance ([2]; 6th month): off-white
- Purity ([2]; 6th month): 99.78%
- Moisture content ([2]; 6th month): 0.12%
- change of appearance, purity and moisture content ([2]; accelerated experimental conditions (40±2° C./75%±5% RH, 6 months)): no obvious changes
- exposure in beagle dogs ([3]; beagle dogs, oral capsules 10 mg/kg, conclusion from Table 1): larger exposure
- AUC(0-t) [3, 12]: 9300 ng·h/mL
- Cmax [3, 12]: 2810 ng/mL
- Tmax [3, 12]: 1.17 h
- Appearance ([4]; 6th day): off-white
- Purity ([4]; 6th day): 99.78%
- Appearance ([4]; 10th day): off-white
- Purity ([4]; 10th day): 99.77%
- Appearance ([4]; 30th day): off-white
- Purity ([4]; 30th day): 99.76%
- change of appearance and purity ([4]; high humidity (25° C., RH 90%±5%), 30 days): no obvious changes
- Appearance ([5]; 6th day): off-white
- Purity ([5]; 6th day): 99.77%
- Appearance ([5]; 13th day): off-white
- Purity ([5]; 13th day): 99.77%
- Appearance ([5]; 30th day): off-white
- Purity ([5]; 30th day): 99.72%
- change of appearance and purity ([5]; lighting conditions, 30 days): no obvious changes
- crystal transformation on standing ([6]; listed as crystal form I): does not undergo crystal transformation
- solubility compared with crystal form II (Solubility experiment): better solubility
- hygroscopicity feature ([7]; Chinese Pharmacopoeia 2015 General Principle 9103 classes (Table 5)): lightly hygroscopic
- Weight gain at 60% relative humidity ([7]; DVS, 25° C., 60% relative humidity): 0.27%
- Weight gain at 80% relative humidity ([7]; DVS, 25° C., 80% relative humidity): 0.38%
- Weight gain at 95% relative humidity ([7]; DVS, 25° C., 95% relative humidity): 0.57%

Structure (SMILES): Cn1c(=O)c(C(=O)NCC(=O)O)c(O)c2ccc(Oc3ccccc3)cc21 [crystal form II, 2-(4-hydroxy-1-methyl-2-oxo-7-phenoxy-1,2-dihydroquinoline-3-carboxamido)acetic acid]
- crystal transformation on standing [6]: easy to undergo crystal transformation
